Data taken from patent US20240382471A1, “GLUCAGON-LIKE PEPTIDE-1 RECEPTOR MODULATORS AND USES THEREOF” (HEPAGENE THERAPEUTICS (HK) LIMITED, priority 2021, published 2024).
Blank lines part the entries; values can stand above or below the molecule they belong to.

Molecular target: GLP1R (Homo sapiens, UniProt P43220)
Assay: GLP1R cAMP assay (HTRF cAMP detection, agonist activity)
Format: cell-based
Parameters: host or cells: Flp-In-293
Details: Flp-In-293-GLP1R cells, 30 min at 37° C., read-out: EC50 (nM) Assay 1
Procedure: GLP1R-mediated agonist activity was determined with a cell-based functional assay utilizing an HTRF (Homogeneous Time-Resolved Fluorescene) cAMP detection kit that measures CAMP levels in the cell. Reagents and equipment used in the assay are listed below, followed by the protocol.
• 1) Cell Line: Flp-In-293-GLP1R (constructed by Pharmaron Beijing Co., Ltd) • 2) Complete Medium: DMEM+10% FBS+1×Penicillin-Streptomycin+200 μg/mL HB • 3) Assay Buffer: 1×HBSS+20 mM HEPES+0.1% BSA+500 μM IBMX
• a) Seed Flpin-293-GLP1R cells at 20,000 cells/well into 384 well assay plate (6007680-50, PE) using complete medium. • b) Prepare 4×compound working solution with assay buffer. • c) Add 5 μL 4×compound working solution into cell plate, incubate 30 min at 37° C. • d) Dilute Eu-cAMP tracer (1/50) with lysis buffer and add 10 μl/well to assay plate. • e) Dilute Ulight-anti-cAMP (1/150) with lysis buffer and add 10 μl/well to assay plate. • f) Incubate 1 h at RT. • g) Read the plate at wavelengths of 665 nm and 615 nm on Envision 2105 plate reader.
• 3.1% Activity is calculated as follow:
% Activity=100−(Signalcmpd−SignalAve_PC)/(SignalAve_VC−SignalAve_PC)×100. • 3.2 Calculate EC50 and Plot effect-dose curve of cmpds:
Y=Bottom+(Top−Bottom)/(1+10^((Log EC50−X)*Hill Slope)) • X: log of agonist concentration; Y: % Activity.

Sequence of GLP1R (P43220 24-463, species assumed): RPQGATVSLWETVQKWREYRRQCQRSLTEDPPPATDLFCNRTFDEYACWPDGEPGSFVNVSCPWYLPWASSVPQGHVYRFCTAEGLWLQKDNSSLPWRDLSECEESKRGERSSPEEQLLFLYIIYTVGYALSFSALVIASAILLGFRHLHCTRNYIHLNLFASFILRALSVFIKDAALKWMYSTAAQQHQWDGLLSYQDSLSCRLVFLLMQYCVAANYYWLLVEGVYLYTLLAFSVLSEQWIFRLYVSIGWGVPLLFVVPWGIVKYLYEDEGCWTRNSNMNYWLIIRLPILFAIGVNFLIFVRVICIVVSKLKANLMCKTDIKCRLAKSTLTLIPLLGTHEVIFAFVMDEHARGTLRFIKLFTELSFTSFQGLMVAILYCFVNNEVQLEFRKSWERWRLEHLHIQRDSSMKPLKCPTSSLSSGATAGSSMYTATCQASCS

Molecule: N#Cc1ccc(COc2ccnc(C34CCN(Cc5nc6ccc(C(=O)O)cc6n5C[C@@H]5CCO5)CC3C4)c2)c(F)c1 (single isomer, unassigned) [Compound 1-2-B]
- EC50: > 4 nM

Molecule: O=C(O)c1ccc2nc(CN3C4CCC3CN(c3cccc(OCc5ccncc5F)n3)C4)n(C[C@@H]3CCO3)c2c1 [Compound 2-13, 2-[(3-{6-[(3-fluoropyridin-4-yl)methoxy]pyridin-2-yl}-3,8-diazabicyclo[3.2.1]octan-8-yl)methyl]-3-[(2S)-oxetan-2-ylmethyl]-1,3-benzodiazole-5-carboxylic acid]
- EC50: > 4 nM

Molecule: O=C(O)c1ccc2nc(CN3CC4CN(c5cccc(OCc6ccc(F)cc6F)n5)CC4C3)n(C[C@@H]3CCO3)c2c1 (stereo partly drawn) [Compound 2-28, 2-[(5-{6-[(2,4-difluorophenyl)methoxy]pyridin-2-yl}-hexahydropyrrolo[3,4-c]pyrrol-2-yl)methyl]-3-[(2S)-oxetan-2-ylmethyl]-1,3-benzodiazole-5-carboxylic acid]
- EC50: > 4 nM

Molecule: COc1cc(C#N)ccc1COc1cccc(C23CCN(Cc4nc5ccc(C(=O)O)cc5n4C[C@@H]4CCO4)CC2C3)n1 (stereo partly drawn) [Compound 1-6, 2-((6-(6-((4-cyano-2-methoxybenzyl)oxy)pyridin-2-yl)-3-azabicyclo[4.1.0]heptan-3-yl)methyl)-1-(((S)-oxetan-2-yl)methyl)-1H-benzo[d]imidazole-6-carboxylic acid]
- EC50: 0.003 nM

Molecule: N#Cc1ccc(COc2cccc(N3CC4CCC(C3)N4Cc3nc4ccc(C(=O)O)cc4n3C[C@@H]3CCO3)n2)cc1 [Compound 2-4, 2-[(3-{6-[(4-cyanophenyl)methoxy]pyridin-2-yl}-3,8-diazabicyclo[3.2.1]octan-8-yl)methyl]-3-[(2S)-oxetan-2-ylmethyl]-1,3-benzodiazole-5-carboxylic acid]
- EC50: > 4 nM

Molecule: N#Cc1ccc(COc2cccc(N3CC4CN(Cc5nc6ccc(C(=O)O)cc6n5C[C@@H]5CCO5)CC4C3)n2)cc1 (stereo partly drawn) [Compound 2-22, 2-((5-(6-((4-cyanobenzyl)oxy)pyridin-2-yl)hexahydropyrrolo[3,4-c]pyrrol-2 (1H)-yl)methyl)-1-(((S)-oxetan-2-yl)methyl)-1H-benzo[d]imidazole-6-carboxylic acid]
- EC50: 2 nM

Molecule: O=C(O)c1ccc2nc(CN3C4CCC3CN(c3cccc(OCc5ccc(Cl)cc5F)n3)C4)n(C[C@@H]3CCO3)c2c1 [Compound 2-6, 2-[(3-{6-[(4-chloro-2-fluorophenyl)methoxy]pyridin-2-yl}-3,8-diazabicyclo[3.2.1]octan-8-yl)methyl]-3-[(2S)-oxetan-2-ylmethyl]-1,3-benzodiazole-5-carboxylic acid]
- EC50: 0.643 nM

Molecule: CS(=O)(=O)c1ccc(COc2cccc(N3CC4CCC(C3)N4Cc3nc4ccc(C(=O)O)cc4n3C[C@@H]3CCO3)n2)cc1 [Compound 2-14, 2-((−3-(6-((4-(methylsulfonyl)benzyl)oxy)pyridin-2-yl)-3,8-diazabicyclo[3.2.1]octan-8-yl)methyl)-1-(((S)-oxetan-2-yl)methyl)-1H-benzo[d]imidazole-6-carboxylic acid]
- EC50: > 4 nM

Molecule: N#Cc1ccc(COc2ccnc(C34CCN(Cc5nc6ccc(C(=O)O)cc6n5C[C@@H]5CCO5)CC3C4)n2)c(F)c1 (single isomer, unassigned) [Compound 1-11-A]
- EC50: 0.995 nM

Molecule: 2-((3-(6-((4-cyano-2-fluorobenzyl)oxy)pyridin-2-yl)-3,8-diazabicyclo[3.2.1]octan-8-yl)methyl)-1-((oxetan-2-yl)methyl)-1H-benzo[d]imidazole-6-carboxylic acid [Compound 2-30]
- EC50: 0.375 nM

Continued, values first:

- EC50: 1.84 nM
Molecule: N#Cc1ccc(COc2cccc(N3CC4CN(Cc5nc6ccc(C(=O)O)cc6n5C[C@@H]5CCO5)CC4C3)n2)c(F)c1 (stereo partly drawn) [Compound 2-20, 2-[(5-{6-[(4-cyano-2-fluorophenyl)methoxy]pyridin-2-yl}-hexahydropyrrolo[3,4-c]pyrrol-2-yl)methyl]-3-[(2S)-oxetan-2-ylmethyl]-1,3-benzodiazole-5-carboxylic acid]

- EC50: 0.929 nM
Molecule: Cc1ccc(COc2cccc(N3C4CCC3CN(Cc3nc5ccc(C(=O)O)cc5n3C[C@@H]3CCO3)C4)n2)c(F)c1 [Compound 2-37, 2-((−8-(6-((2-fluoro-4-methylbenzyl)oxy)pyridin-2-yl)-3,8-diazabicyclo[3.2.1]octan-3-yl)methyl)-1-(((S)-oxetan-2-yl)methyl)-1H-benzo[d]imidazole-6-carboxylic acid]

- EC50: > 4 nM
Molecule: CS(=O)(=O)NC(=O)c1ccc2nc(CN3CC4CCC(C3)N4c3cccc(OCc4ccc(C#N)cc4F)n3)n(C[C@@H]3CCO3)c2c1 [Compound 2-42, 2-((−8-(6-((4-cyano-2-fluorobenzyl)oxy)pyridin-2-yl)-3,8-diazabicyclo[3.2.1]octan-3-yl)methyl)-N-(methylsulfonyl)-1-(((S)-oxetan-2-yl)methyl)-1H-benzo[d]imidazole-6-carboxamide]

- EC50: > 4 nM
Molecule: Cc1ccc(COc2cccc(N3CC4CCC(C3)N4Cc3nc4ccc(C(=O)O)cc4n3C[C@@H]3CCO3)n2)c(F)c1 [Compound 2-8, 2-[(3-{6-[(2-fluoro-4-methylphenyl)methoxy]pyridin-2-yl}-3,8-diazabicyclo[3.2.1]octan-8-yl)methyl]-3-[(2S)-oxetan-2-ylmethyl]-1,3-benzodiazole-5-carboxylic acid]

- EC50: > 4 nM
Molecule: O=C(O)c1ccc2nc(CN3CC4CCC(C3)N4c3cccc(OCc4ccncc4)n3)n(C[C@@H]3CCO3)c2c1 [Compound 2-41, 3-[(2S)-oxetan-2-ylmethyl]-2-({8-[6-(pyridin-4-ylmethoxy)pyridin-2-yl]-3,8-diazabicyclo[3.2.1]octan-3-yl}methyl)-1,3-benzodiazole-5-carboxylic acid]

- EC50: > 4 nM
Molecule: N#Cc1ccc(COc2cccc(N3CC4CCC(C3)N4Cc3nc4ccc(C(=O)O)cc4n3C[C@@H]3CCCO3)n2)c(F)c1 [Compound 2-10, 2-((−3-(6-((4-cyano-2-fluorobenzyl)oxy)pyridin-2-yl)-3,8-diazabicyclo[3.2.1]octan-8-yl)methyl)-1-(((S)-tetrahydrofuran-2-yl)methyl)-1H-benzo[d]imidazole-6-carboxylic acid]

- EC50: 1.22 nM
Molecule: N#Cc1ccc(COc2cccc(N3CC4CCC(C3)N4Cc3nc4ccc(C(=O)O)cc4n3C[C@@H]3CCO3)n2)c(F)c1 [Compound 2, 2-((−3-(6-((4-cyano-2-fluorobenzyl)oxy)pyridin-2-yl)-3,8-diazabicyclo[3.2.1]octan-8-yl)methyl)-1-(((S)-oxetan-2-yl)methyl)-1H-benzo[d]imidazole-6-carboxylic acid]

- EC50: > 4 nM
Molecule: N#Cc1ccc(COc2cccc(N3C4CCC3CN(Cc3nc5ccc(C(=O)O)cc5n3CC3CCOC3)C4)n2)c(F)c1 (centres unmarked) [Compound 2-33, 2-[(8-{6-[(4-cyano-2-fluorophenyl)methoxy]pyridin-2-yl}-3,8-diazabicyclo[3.2.1]octan-3-yl)methyl]-3-(oxolan-3-ylmethyl)-1,3-benzodiazole-5-carboxylic acid]

- EC50: 3.25 nM
Molecule: N#Cc1ccc(COc2cccc(N3C4CCC3CN(Cc3nc5ccc(C(=O)O)cc5n3C[C@@H]3CCCO3)C4)n2)c(F)c1 [Compound 2-32, 2-((−8-(6-((4-cyano-2-fluorobenzyl)oxy)pyridin-2-yl)-3,8-diazabicyclo[3.2.1]octan-3-yl)methyl)-1-(((S)-tetrahydrofuran-2-yl)methyl)-1H-benzo[d]imidazole-6-carboxylic acid]

- EC50: > 4 nM
Molecule: N#Cc1ccc(COc2cccc(N3CC4CCC(C3)N4Cc3nc4ccc(C(=O)O)cc4n3CC3CCO3)n2)c(F)c1 (centres unmarked) [Compound 2-9, 2-((−3-(6-((4-cyano-2-fluorobenzyl)oxy)pyridin-2-yl)-3,8-diazabicyclo[3.2.1]octan-8-yl)methyl)-1-(oxetan-2-ylmethyl)-1H-benzo[d]imidazole-6-carboxylic acid]

- EC50: > 4 nM
Molecule: N#Cc1ccc(COc2cccc(N3CC4CN(Cc5nc6ccc(C(=O)O)cc6n5C[C@@H]5CCCO5)CC4C3)n2)c(F)c1 (stereo partly drawn) [Compound 2-23, 2-[(5-{6-[(4-cyano-2-fluorophenyl)methoxy]pyridin-2-yl}-hexahydropyrrolo[3,4-c]pyrrol-2-yl)methyl]-3-[(2S)-oxolan-2-ylmethyl]-1,3-benzodiazole-5-carboxylic acid]

- EC50: 0.346 nM
Molecule: O=C(O)c1ccc2nc(CN3CC4CCC(C3)N4c3cccc(OCc4ccc(Cl)cc4F)n3)n(C[C@@H]3CCO3)c2c1 [Compound 2-39, 2-[(8-{6-[(4-chloro-2-fluorophenyl)methoxy]pyridin-2-yl}-3,8-diazabicyclo[3.2.1]octan-3-yl)methyl]-3-[(2S)-oxetan-2-ylmethyl]-1,3-benzodiazole-5-carboxylic acid]

- EC50: > 4 nM
Molecule: N#Cc1ccc(COc2cccc(N3C4CC3CN(Cc3nc5ccc(C(=O)O)cc5n3C[C@@H]3CCO3)C4)n2)c(F)c1 [Compound 2-2, 2-((6-(6-((4-cyano-2-fluorobenzyl)oxy)pyridin-2-yl)-3,6-diazabicyclo[3.1.1]heptan-3-yl)methyl)-1-(((S)-oxetan-2-yl)methyl)-1H-benzo[d]imidazole-6-carboxylic acid]
